Calls of active or inactive are those of the source. Bounds are passed on as bounds.

A short description of experiment [1]: Luminescence Cell-Based Dose Response HTS to Identify Inhibitors of 5'UTR Stem-Loop Driven Prion Protein mRNA Translation in H4 Neuroglioblastoma Cells. [Related pubchem assays: 1827 (Project Summary), 1813 (Primary HTS)]. Type of experiment: functional.
Another experiment concerns the target Phospholipase A2 (Homo sapiens, UniProt P04054). The format is functional.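 Note: confirmatory dose-response counterscreen on phospholipase A2, testing hits that came from an ultra-high-throughput screen for ATG4B inhibitors.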
A further experiment concerns the target Wee1-like protein kinase (Homo sapiens, UniProt P30291). Put plainly: Dose Response Cell-based Assay for Inhibitors of Wee1 Degradation. [Related pubchem assays: 1410, 1321 ]. Type of experiment: functional.
Experiment [2] can be described thus: inhibitors of firefly luciferase expression or activity, dose response, H4 neuroglioma cells, luminescence (AID 1990). The format is functional, cell-based.
The next experiment addresses T1, Cysteine protease ATG4B (Homo sapiens, UniProt Q9Y4P1).
T1 sequence (Q9Y4P1 whole entry): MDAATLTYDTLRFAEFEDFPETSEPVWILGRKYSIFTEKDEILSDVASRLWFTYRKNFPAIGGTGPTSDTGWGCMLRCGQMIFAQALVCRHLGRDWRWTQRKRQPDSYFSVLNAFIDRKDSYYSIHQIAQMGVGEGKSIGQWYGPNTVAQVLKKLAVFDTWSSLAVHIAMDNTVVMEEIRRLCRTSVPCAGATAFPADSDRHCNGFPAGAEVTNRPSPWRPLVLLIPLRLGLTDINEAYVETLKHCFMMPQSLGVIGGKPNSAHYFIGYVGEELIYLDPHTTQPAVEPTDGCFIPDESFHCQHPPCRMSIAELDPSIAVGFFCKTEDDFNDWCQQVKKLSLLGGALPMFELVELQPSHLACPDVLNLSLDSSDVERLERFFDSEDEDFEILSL
Type of experiment: functional.

Experiment [3] addresses G2/mitotic-specific cyclin-B1 (Homo sapiens, UniProt P14635). The experiment is described as follows: Counterscreen assay for inhibitors of Wee1 degradation: dose response cell-based assay to identify inhibitors of cyclin B degradation. [Related pubchem assays: 1410, 1321 ]. Type of experiment: functional. (In general: Counterscreens check selectivity or assay interference.)

Experiment [4] is described as follows: inhibitors of SNCA 5'UTR-driven reporter translation, confirmation, H4 neuroglioma cells, luminescence (AID 1988). Type of experiment: functional, cell-based.
Experiment [5] can be described thus: cytotoxicity toward DRD oncogenic fibroblasts, dose response, cell-based, non-viral oncogenic, luminescence (AID 1934). The following applies: Homo sapiens. Type of experiment: functional.
The subject of experiment [6] is Vero. The experiment is described as follows: cells. The format is functional. The note with it: Chlorocebus sabaeus.
The nature of experiment [7]: cells. The format is functional, cell-based.
Another experiment concerns Streptococcus. Put plainly: Group A Streptococcus viability loss, dose response, counter-screen for streptokinase expression inhibitor project, luminescence, BacTiterGlo (AID 1915).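 Note: potency for reduction of bacterial viability or growth.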 Type of experiment: functional, organism-based.
A short description of experiment [8]: A Cell Based Assay for the Identification of Probe candidate Compounds with Anti- Venezuelan Equine Encephalitis virus. [Related pubchem assays: 2409, 2419, 1621, 2238, 2405, 2024, 2065, 2402, 2414, 1635, 1650, 2244 ]. Type of experiment: functional.
The nature of experiment [9]: cytotoxicity toward NIH3T3 fibroblasts, dose response, counter-screen, cell-based, ATP luminescence, mouse fibroblasts (AID 2010).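 Note: cells exposed to compound for about 90 hours before reading.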 The format is functional.
Experiment [10] relates to Vero. Put plainly: cytotoxicity of synthesized analogs in Vero 76, SAR follow-up, cytotoxicity control for West Nile virus antiviral project, Vero 76 cells (AID 2414). The format is functional. The note with it: Chlorocebus sabaeus.
A short description of experiment [11]: inhibitors of intracellular T. cruzi replication, confirmation, NIH3T3 host cells, beta-gal luminescence (AID 2044).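 Note: intracellular parasites grown in NIH/3T3 mouse fibroblasts as host cells; luminescent beta-galactosidase reporter signal from transgenic T. cruzi replicating inside host cells; inhibitors lower the luminescence signal.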 The format is functional, cell-based.
A short description of experiment [12]: Shn3 3'UTR reporter inhibitors, dose response, cell-based, Clone20 osteoblasts, firefly luciferase, cherry-picked (AID 624132).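 Note: firefly luciferase luminescence from reporter carrying the Shn3 3'UTR in osteoblasts.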 Type of experiment: functional.
Experiment [13] is described as follows: cells. Type of experiment: functional, cell-based. The source holds these as a separate data set.
A short description of experiment [14]: control 3'UTR Renilla luciferase suppression, dose response, counter-screen for Shn3 inhibitor project, cell-based, Clone20-Shn3RL, cherry-picked (AID 624133). Type of experiment: functional.
The test system of experiment [15] is BJ. The experiment is described as follows: cytotoxicity toward BJ-TERT-LT-ST fibroblasts, dose response, cell-based, RAS-independent, luminescence (AID 1935).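 Note: BJ fibroblasts immortalized with TERT plus LT and ST oncogenes.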 Type of experiment: functional. The note with it: Homo sapiens.
Experiment [16] deals with BJ. The experiment is described as follows: cells. The format is functional, cell-based. The following applies: Homo sapiens.
The next experiment concerns INS1. Put plainly: beta cell apoptosis inhibitors, cytokine rescue, dose response, luminescence, retest (AID 449756).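 Note: cell death triggered by IL-1 beta plus TNF-alpha plus IFN-gamma mixture; protective hits raise ATP signal compared with cytokine alone wells.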 The format is functional, cell-based. The note with it: Rattus norvegicus.
Experiment [17] is described as follows: C. albicans growth with fluconazole, confirmation, fluorescence, retest (AID 2467). Type of experiment: functional, cell-based.
The subject of experiment [18] is Vero. The experiment is described as follows: Vero E6 cell cytotoxicity, SAR follow-up, cytotoxicity control for West Nile virus antiviral project, synthesized analogs (AID 2244). The format is functional. The note with it: Chlorocebus sabaeus.
For experiment [19], the system named is BJ. The experiment is described as follows: cytotoxicity toward BJ-TERT fibroblasts, dose response, cell-based, RAS-independent, luminescence (AID 1933). Type of experiment: functional. The following applies: Homo sapiens.
A short description of experiment [20]: HepG2 cell cytotoxicity, dose response, cytotoxicity control for Shn3 inhibitor project, CellTiter-Glo, cherry-picked (AID 624134). The format is functional, cell-based. (Cellular ATP, detected with luciferase, serves as a proxy for viable cell number.)
Experiment [21] in a line: NIH-3T3 fibroblast cytotoxicity, dose response, cytotoxicity control, cell-based, fluorescence, Alamar Blue, secondary assay (AID 2327).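 Note: NIH-3T3 mouse fibroblasts cultured with fluconazole at 8 µg/mL.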 Type of experiment: functional. Background: The colour change of resazurin is a common sign of viable cells or microbes.
Experiment [22] deals with Streptococcus sp. 'group A'. Put plainly: growth inhibition of control SK(-) GAS strain, dose response, counter-screen for streptokinase expression inhibitor project, luminescence, kanamycin, BacTiterGlo, confirmation (AID 1900). The format is functional, organism-based.
Experiment [23] relates to Vero. The experiment is described as follows: cytotoxicity of synthesized analogs in Vero cells, SAR follow-up, cytotoxicity control for West Nile virus antiviral project, cell-based, set II (AID 2402). The following applies: Chlorocebus sabaeus. The format is functional.
Experiment [24] addresses T2, Neuropeptide Y receptor type 2 (Homo sapiens, UniProt P49146).
T2 sequence (P49146 whole entry): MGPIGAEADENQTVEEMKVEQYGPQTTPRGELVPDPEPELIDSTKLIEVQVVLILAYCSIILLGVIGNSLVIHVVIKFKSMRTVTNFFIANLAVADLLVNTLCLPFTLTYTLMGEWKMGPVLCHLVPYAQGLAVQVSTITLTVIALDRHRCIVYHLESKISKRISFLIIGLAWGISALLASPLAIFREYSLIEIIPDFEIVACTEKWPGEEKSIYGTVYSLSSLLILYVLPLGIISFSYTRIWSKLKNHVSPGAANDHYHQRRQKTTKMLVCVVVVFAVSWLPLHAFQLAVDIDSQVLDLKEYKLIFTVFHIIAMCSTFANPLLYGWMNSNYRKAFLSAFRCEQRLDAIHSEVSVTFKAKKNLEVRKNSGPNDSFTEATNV
The experiment is described as follows: Fluorescence-based cell-based high-throughput dose response assay for agonists of NPY-Y2. [Related pubchem assays: 1703 (Screening assay (CNGC inhibitors).), 1359 (Screening assay (NPY-Y2 potentiators or agonists).), 1304 (Screening assay (NPY-Y1 potentiators or agonists).), 1710 (Screening assay (NPY-Y2 agonists).), 1791 (Summary AID.)]. Type of experiment: functional.

Experiment [25] deals with T3, Neuropeptide Y receptor type 1 (Homo sapiens, UniProt P25929).
T3 sequence (P25929 whole entry): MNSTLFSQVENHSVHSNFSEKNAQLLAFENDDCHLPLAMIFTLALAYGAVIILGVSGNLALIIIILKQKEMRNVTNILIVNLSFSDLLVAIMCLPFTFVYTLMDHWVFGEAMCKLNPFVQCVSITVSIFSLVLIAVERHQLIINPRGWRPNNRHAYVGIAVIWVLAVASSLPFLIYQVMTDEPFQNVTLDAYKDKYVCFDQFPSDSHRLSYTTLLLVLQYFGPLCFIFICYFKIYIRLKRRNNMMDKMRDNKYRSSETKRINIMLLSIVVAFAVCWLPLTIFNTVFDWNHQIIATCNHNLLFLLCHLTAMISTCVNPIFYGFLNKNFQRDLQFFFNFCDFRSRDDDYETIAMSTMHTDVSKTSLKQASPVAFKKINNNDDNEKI
Put plainly: Fluorescence-based counterscreen for agonists of NPY-Y2: cell-based high-throughput dose response assay for agonists of NPY-Y1. Type of experiment: functional.

The subject of the next experiment is HEK293. Put plainly: Fluorescence-based counterscreen for potentiators or agonists of NPY-Y2: cell-based high-throughput dose response assay to identify inhibitors of cyclic nucleotide gated ion channel (CNGC) activity. In this assay, the parental HEK293 cell line transfected with a cyclic-nucleotide gated ion channel (CNGC)-based cAMP sensor is used to measure inhibition of isoproterenol-induced CNGC activity by test compound. The format is functional. The following applies: Homo sapiens.

G2/mitotic-specific cyclin-B1, sequence (P14635 whole entry): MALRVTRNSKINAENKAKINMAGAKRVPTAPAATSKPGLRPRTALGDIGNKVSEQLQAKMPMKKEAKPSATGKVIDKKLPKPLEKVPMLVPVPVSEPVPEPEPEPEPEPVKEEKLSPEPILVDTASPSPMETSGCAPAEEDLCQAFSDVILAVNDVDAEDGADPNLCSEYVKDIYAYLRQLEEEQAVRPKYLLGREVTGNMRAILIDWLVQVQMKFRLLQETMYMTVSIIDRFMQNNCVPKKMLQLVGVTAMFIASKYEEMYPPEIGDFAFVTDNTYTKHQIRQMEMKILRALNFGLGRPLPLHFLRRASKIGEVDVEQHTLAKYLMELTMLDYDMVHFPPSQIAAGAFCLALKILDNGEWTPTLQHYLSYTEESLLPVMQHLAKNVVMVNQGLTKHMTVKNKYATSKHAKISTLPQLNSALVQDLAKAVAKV
Wee1-like protein kinase, sequence (P30291 whole entry): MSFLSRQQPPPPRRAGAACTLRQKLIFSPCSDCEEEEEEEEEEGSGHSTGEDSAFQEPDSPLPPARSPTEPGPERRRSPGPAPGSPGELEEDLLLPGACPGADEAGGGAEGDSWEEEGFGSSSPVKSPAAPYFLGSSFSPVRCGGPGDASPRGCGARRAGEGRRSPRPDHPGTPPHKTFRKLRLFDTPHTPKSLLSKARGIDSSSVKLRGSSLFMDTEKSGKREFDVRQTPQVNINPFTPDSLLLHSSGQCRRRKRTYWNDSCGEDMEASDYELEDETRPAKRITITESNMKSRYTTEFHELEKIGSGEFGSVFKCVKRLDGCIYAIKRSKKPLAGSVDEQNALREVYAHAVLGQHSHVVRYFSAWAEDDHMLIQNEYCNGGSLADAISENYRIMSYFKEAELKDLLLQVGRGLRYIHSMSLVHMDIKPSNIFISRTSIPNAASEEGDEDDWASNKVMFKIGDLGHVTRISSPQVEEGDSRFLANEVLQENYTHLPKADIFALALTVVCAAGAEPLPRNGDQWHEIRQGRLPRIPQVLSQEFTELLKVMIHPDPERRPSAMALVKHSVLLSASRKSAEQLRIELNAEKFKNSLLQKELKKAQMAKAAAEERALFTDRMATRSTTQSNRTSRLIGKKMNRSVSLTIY
Phospholipase A2, sequence (P04054 whole entry): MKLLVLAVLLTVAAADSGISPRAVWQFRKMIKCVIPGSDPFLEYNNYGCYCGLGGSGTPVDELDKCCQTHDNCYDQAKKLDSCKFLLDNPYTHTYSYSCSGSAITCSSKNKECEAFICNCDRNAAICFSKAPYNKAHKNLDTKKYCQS

In the case of `CCCC1=Nc2cc(C(=O)NCc3ccco3)ccc2Sc2ccccc21`, the 50% effective concentration (EC50) – broadly, the midpoint of the concentration-response curve – in [1] is 11.4 µM (active); on Wee1-like protein kinase it was > 49.7 µM (not active); in [2] it was 11.1 µM (inconclusive); in experiment [3], > 49.7 µM (not active); in experiment [4], 8.6 µM (active). Further, the IC50 – broadly, the midpoint of a concentration-inhibition curve – on Phospholipase A2 was 6.93 µM (active); at Cysteine protease ATG4B, 15.2 µM (active).

As for `Oc1ccccc1C(Nc1nccs1)c1ccc2cccnc2c1O` (centres undefined), the EC50 in [5] is 10.7 µM (active); in [1], 8.46 µM (active); in the experiment “cells [7]” it was > 350 µM (not active); in the experiment on Streptococcus it was 6.55 µM (active); in experiment [9], 9.11 µM (active); in experiment [11], 0.832 µM (active). In addition, the EC50 is 12.5 µM (active) in the experiment “cells [13]”; 9.11 µM (active) with BJ [15]; 13.9 µM (active) with BJ [16]; 11.9 µM (active) in experiment [2]; 1.4 µM (active) in [17]; 8.13 µM (inconclusive) in the experiment on BJ [19]. Besides, the EC50 in experiment [21] is 6.03 µM (active); in [22] it was 2.3 µM (active); in experiment [4], 9.59 µM (active). The CC50 (commonly the concentration at which the toxic effect on the cells reaches its halfway point) in the experiment with Vero [6] was 10.3 µM (active); in the experiment with Vero [10], 21.6 µM (active); with Vero [18] it was 8 µM (active); in the experiment on Vero [23] it was 7.2 µM (active). Also, the IC50 in experiment [8] is 20.9 µM (active). In addition, the concentration at half-maximal activity (AC50) – broadly, the concentration giving half of the maximal activity seen – in experiment [12] was 1.13 µM (active); in experiment [14], 2.47 µM (active); with INS1, 1.95 µM (active); in [20] it was 6.74 µM (active).

As for `Cc1ccc(Cl)cc1NC(=O)c1cc2ccccc2cc1O`, the half-maximal effective concentration (EC50) is listed as 15.1 µM (not active) in [24], 17.1 µM (not active) in experiment [25] and > 35.4 µM (not active) with HEK293.

These data come from ChEMBL document CHEMBL1201862, “PubChem BioAssay data set” (2004).
